Laboratory results reported in patent US10752624B2, “Kinase inhibitors” (Origenis GmbH, priority 2012, dated 2020).

Assays:
SYK kinase = target: T1, SYK kinase (Homo sapiens, UniProt P43405); assay: SYK Assay (OMNIA Kinase Assay, SOX peptide fluorescence); type: biochemical; settings: 1 mM ATP, 10 μM Omnia Peptide Substrate Tyr 7, 30° C., readings for 30 minutes; read-out: SYK Activities: IC50
T1 construct: purchased Invitrogen, Carlsbad
Experimental: In the assay OMNIA® KINASE ASSAY by Invitrogen Corporation (Carlsbad) the effect of invention of a compound on the phosphorylation is determined by measurement of fluorescence intensity of a chelation-enhanced fluorophore called SOX. Upon phosphorylation of the peptide by the kinase of interest, Mg2+ is chelated to form a bridge between the SOX moiety and the phosphate group that is transferred to the specific tyrosine on the peptide. The fluorescence intensity is directly proportional to the amount of peptide phosphorylation.
To the wells of an 384 well small volume plate (Greiner, Frickenhausen) are added (i) the compound under test in 5% DMSO/distilled water (2 μl), (ii) 16 μl of the master mix containing ATP, DTT, Kinase Reaction Buffer, Omina Peptide Substrate Tyr 7 resulting in a final concentration of 1 mM ATP, 0.2 mM DTT and 10 μM Peptide Substrate.
The Master Mix and the assay plate was incubated to reaction temperature before the measurement (30° C.). The reaction was started with addition of (iii) 2 μl 4 μg/ml SYK kinase (Invitrogen, Carlsbad). During measurement fluorescence intensity readings were collected using a TECAN M1000 at a wavelength of λex 360/λem 485 nm every 30 s for 30 minutes. The reaction velocity was plotted versus the inhibitor concentration to determine the IC50 using XLFit 5.0 (IDBS, Guildford) to fit to a sigmoidal dose response curve.

LRRK2 = LRRK2 (Homo sapiens, UniProt Q5S007); assay: LRRK2-LRRK2 G2019S-Assay (LanthaScreen Eu Kinase Binding Assay); settings: 5 nM LRRK2, 10 nM tracer 236, 2 nM EU-Anti-GST antibody, 1 h at RT; read-out: LRRK2 Activities: IC50
LRRK2, sequence (Q5S007 970-2527 limits assumed): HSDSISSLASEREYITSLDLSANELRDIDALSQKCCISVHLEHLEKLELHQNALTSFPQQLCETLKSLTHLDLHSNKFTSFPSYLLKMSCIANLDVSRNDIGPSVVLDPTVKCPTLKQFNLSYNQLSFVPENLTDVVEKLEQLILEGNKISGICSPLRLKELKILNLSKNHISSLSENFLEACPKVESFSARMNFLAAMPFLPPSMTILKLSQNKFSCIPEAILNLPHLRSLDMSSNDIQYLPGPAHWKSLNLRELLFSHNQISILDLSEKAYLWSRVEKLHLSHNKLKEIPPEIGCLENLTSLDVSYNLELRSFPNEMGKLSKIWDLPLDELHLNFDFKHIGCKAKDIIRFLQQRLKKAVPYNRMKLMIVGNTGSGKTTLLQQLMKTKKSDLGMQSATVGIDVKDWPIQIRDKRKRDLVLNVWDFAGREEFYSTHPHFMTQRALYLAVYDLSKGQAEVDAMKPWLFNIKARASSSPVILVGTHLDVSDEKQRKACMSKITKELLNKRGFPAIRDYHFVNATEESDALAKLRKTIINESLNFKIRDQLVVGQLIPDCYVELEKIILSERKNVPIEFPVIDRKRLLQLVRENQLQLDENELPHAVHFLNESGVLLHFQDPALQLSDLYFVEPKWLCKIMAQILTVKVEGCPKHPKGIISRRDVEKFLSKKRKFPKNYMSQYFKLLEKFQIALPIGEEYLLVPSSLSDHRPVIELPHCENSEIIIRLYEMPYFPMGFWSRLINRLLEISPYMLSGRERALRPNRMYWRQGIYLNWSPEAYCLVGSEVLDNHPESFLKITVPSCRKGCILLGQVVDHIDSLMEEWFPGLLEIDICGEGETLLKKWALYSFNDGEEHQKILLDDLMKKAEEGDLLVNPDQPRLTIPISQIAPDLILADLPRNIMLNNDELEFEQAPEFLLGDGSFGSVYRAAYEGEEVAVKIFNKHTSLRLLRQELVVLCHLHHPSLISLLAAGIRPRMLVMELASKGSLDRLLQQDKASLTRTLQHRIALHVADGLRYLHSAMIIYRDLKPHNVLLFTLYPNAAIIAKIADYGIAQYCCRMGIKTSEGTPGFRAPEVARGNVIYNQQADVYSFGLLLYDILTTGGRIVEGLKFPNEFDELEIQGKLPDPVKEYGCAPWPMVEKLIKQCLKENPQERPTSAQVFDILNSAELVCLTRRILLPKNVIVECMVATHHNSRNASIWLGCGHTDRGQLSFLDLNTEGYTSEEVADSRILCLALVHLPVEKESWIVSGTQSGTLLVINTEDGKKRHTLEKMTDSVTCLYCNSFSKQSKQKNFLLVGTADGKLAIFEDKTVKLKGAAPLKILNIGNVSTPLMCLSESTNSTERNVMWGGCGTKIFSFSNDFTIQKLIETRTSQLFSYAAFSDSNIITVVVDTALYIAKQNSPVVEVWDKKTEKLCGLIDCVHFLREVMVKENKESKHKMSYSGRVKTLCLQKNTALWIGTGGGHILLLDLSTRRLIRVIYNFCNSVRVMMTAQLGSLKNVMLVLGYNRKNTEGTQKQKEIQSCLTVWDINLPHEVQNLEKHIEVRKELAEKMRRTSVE
In short: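 Compound competition with Alexa Fluor 647 tracer 236 (10 nM) was measured after 1 h at room temperature, using 5 nM LRRK2 (wild type or mutant) bound to 2 nM Eu-anti-GST antibody. IC50 was derived from the acceptor/donor (665/615 nm) ratio using a variable-slope dose-response fit.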

| SMILES | IC50 (SYK kinase) [nM] | IC50 (LRRK2) [nM] |
| --- | --- | --- |
| CSc1ccc2nc(Nc3ccc4c(c3)CN(C)C4)c3[nH]ncc3c2c1 [Example 49, N-(2-methylisoindolin-5-yl)-8-(methylthio)-3H-pyrazolo[3,4-c]quinolin-4-amine] | 100 to 1000 | 10 to 100 |
| COc1ccc2nc(Nc3ccc4[nH]c(SC)nc4c3)c3n[nH]cc3c2c1 [Example 56, 8-methoxy-N-(2-(methylthio)-1H-benzo[d]imidazol-5-yl)-2H-pyrazolo[3,4-c]quinolin-4-amine] | 100 to 1000 | 100 to 1000 |
| COc1cccc2nc(Nc3ccc(-c4cnco4)cc3)c3[nH]ncc3c12 [Example 57, 9-methoxy-N-(4-(oxazol-5-yl)phenyl)-3H-pyrazolo[3,4-c]quinolin-4-amine] | 100 to 1000 | 10 to 100 |
| CC(=O)N1CCN(c2ccc(Nc3nc4ccc(C)cc4c4cn[nH]c34)cc2)CC1 [Example 73, 1-(4-(4-((8-methyl-3H-pyrazolo[3,4-c]quinolin-4-yl)amino)phenyl)piperazin-1-yl)ethan-1-one] | 100 to 1000 | 10 to 100 |
| Cc1ccc2nc(Nc3ccc(N4CCOCC4)cc3)c3[nH]ncc3c2c1 [Example 74, 8-methyl-N-(4-morpholinophenyl)-3H-pyrazolo[3,4-c]quinolin-4-amine] | 100 to 1000 | 10 to 100 |
| CS(=O)(=O)c1ccc2nc(Nc3ccc(N4CCOC4=O)cc3)c3[nH]ncc3c2c1 [Example 76, 3-(4-((8-(methylsulfonyl)-3H-pyrazolo[3,4-c]quinolin-4-yl)amino)phenyl)oxazolidin-2-one] | 100 to 1000 | 10 to 100 |
| CS(=O)(=O)c1cccc(Nc2nc3ccc(S(C)(=O)=O)cc3c3cn[nH]c23)c1 [Example 78, 8-(methylsulfonyl)-N-(3-(methylsulfonyl)phenyl)-3H-pyrazolo[3,4-c]quinolin-4-amine] | 100 to 1000 | 10 to 100 |
| COc1cccc2nc(Nc3ccc(N4CCN(C)CC4)nc3)c3[nH]ncc3c12 [Example 79, 9-methoxy-N-(6-(4-methylpiperazin-1-yl)pyridin-3-yl)-3H-pyrazolo[3,4-c]quinolin-4-amine] | 100 to 1000 | 10 to 100 |
| CN1CCN(c2ccc(Nc3nc4ccc(S(C)(=O)=O)cc4c4cn[nH]c34)cn2)CC1 [Example 81, N-(6-(4-methylpiperazin-1-yl)pyridin-3-yl)-8-(methylsulfonyl)-3H-pyrazolo[3,4-c]quinolin-4-amine] | 100 to 1000 | 10 to 100 |
| COc1ccc2nc(Nc3cnn(C)c3)c3n[nH]cc3c2c1 [Example 83, 8-methoxy-N-(1-methyl-1H-pyrazol-4-yl)-2H-pyrazolo[3,4-c]quinolin-4-amine] | 100 to 1000 | 10 to 100 |
| COc1ccc2nc(Nc3cnn(C4CCOCC4)c3)c3n[nH]cc3c2c1 [Example 85, 8-methoxy-N-(1-(tetrahydro-2H-pyran-4-yl)-1H-pyrazol-4-yl)-2H-pyrazolo[3,4-c]quinolin-4-amine] | 100 to 1000 | 10 to 100 |
| COc1ccc2nc(Nc3ccc(N4CCC(N5CCOCC5)CC4)cc3)c3n[nH]cc3c2c1 [Example 86, 8-methoxy-N-(4-(4-morpholinopiperidin-1-yl)phenyl)-2H-pyrazolo[3,4-c]quinolin-4-amine] | 100 to 1000 | 100 to 1000 |
| CS(=O)(=O)c1cccc2nc(Nc3ccc4c(c3)NC(=O)CCC4)c3[nH]ncc3c12 [Example 98, 8-((9-(methylsulfonyl)-3H-pyrazolo[3,4-c]quinolin-4-yl)amino)-4,5-dihydro-1H-benzo[b]azepin-2(3H)-one] | 100 to 1000 | 10 to 100 |
| CS(=O)(=O)c1ccc2c(c1)nc(Nc1ccc(N3CCOCC3)cc1)c1[nH]ncc12 [Example 101, 7-(methylsulfonyl)-N-(4-morpholinophenyl)-3H-pyrazolo[3,4-c]quinolin-4-amine] | 100 to 1000 | 10 to 100 |

Next, values leading:

| IC50 (SYK kinase) [nM] | IC50 (LRRK2) [nM] | SMILES |
| --- | --- | --- |
| 100 to 1000 | 10 to 100 | COc1ccc2nc(Nc3ccc(N4CCC(N5CCN(C)CC5)CC4)cc3)c3n[nH]cc3c2c1 [Example 3, 8-methoxy-N-(4-(4-(4-methylpiperazin-1-yl)piperidin-1-yl)phenyl)-2H-pyrazolo[3,4-c]quinolin-4-amine] |
| 100 to 1000 | 10 to 100 | COc1ccc2nc(Nc3ccc(C(=O)N4CCC(N5CCN(C)CC5)CC4)cc3)c3n[nH]cc3c2c1 [Example 6, (4-((8-methoxy-2H-pyrazolo[3,4-c]quinolin-4-yl)amino)phenyl)(4-(4-methylpiperazin-1-yl)piperidin-1-yl)methanone] |
| 100 to 1000 | 100 to 1000 | Fc1cccc2nc(Nc3ccc(N4CCN(C5CC5)CC4)cc3)c3[nH]ncc3c12 [Example 10, N-(4-(4-cyclopropylpiperazin-1-yl)phenyl)-9-fluoro-3H-pyrazolo[3,4-c]quinolin-4-amine] |
| 100 to 1000 | 10 to 100 | COc1cccc2nc(Nc3ccc(N4CCC(N5CCN(C)CC5)CC4)cc3)c3[nH]ncc3c12 [Example 21, 9-methoxy-N-(4-(4-(4-methylpiperazin-1-yl)piperidin-1-yl)phenyl)-3H-pyrazolo[3,4-c]quinolin-4-amine] |
| 100 to 1000 | 100 to 1000 | COc1ccc2nc(Nc3ccc(CN4CCC(N5CCN(C)CC5)CC4)cc3)c3n[nH]cc3c2c1 [Example 22, 8-methoxy-N-(4-((4-(4-methylpiperazin-1-yl)piperidin-1-yl)methyl)phenyl)-2H-pyrazolo[3,4-c]quinolin-4-amine] |
| 100 to 1000 | 10 to 100 | CSc1ccc2nc(Nc3ccc(N4CCN(C(C)=O)CC4)cc3)c3[nH]ncc3c2c1 [Example 46, 1-(4-(4-((8-(methylthio)-3H-pyrazolo[3,4-c]quinolin-4-yl)amino)phenyl)piperazin-1-yl)ethan-1-one] |
| < 10 | < 10 | CSc1ccc2nc(Nc3ccc4c(c3)NC(=O)CC4)c3[nH]ncc3c2c1 [Example 47, 7-((8-(methylthio)-3H-pyrazolo[3,4-c]quinolin-4-yl)amino)-3,4-dihydroquinolin-2(1H)-one] |
| 10 to 100 | 10 to 100 | CSc1ccc2nc(Nc3ccc(CN(C)C)cc3)c3[nH]ncc3c2c1 [Example 48, N-(4-((dimethylamino)methyl)phenyl)-8-(methylthio)-3H-pyrazolo[3,4-c]quinolin-4-amine] |
| < 10 | 10 to 100 | CS(=O)(=O)c1ccc2nc(Nc3ccc(N4CCOCC4)cc3)c3[nH]ncc3c2c1 [Example 55, 8-(methylsulfonyl)-N-(4-morpholinophenyl)-3H-pyrazolo[3,4-c]quinolin-4-amine] |
| < 10 | 10 to 100 | CC(=O)N1CCN(c2ccc(Nc3nc4ccc(S(C)(=O)=O)cc4c4cn[nH]c34)cc2)CC1 [Example 62, 1-(4-(4-((8-(methylsulfonyl)-3H-pyrazolo[3,4-c]quinolin-4-yl)amino)phenyl)piperazin-1-yl)ethan-1-one] |
| 10 to 100 | 10 to 100 | CS(=O)(=O)c1ccc2nc(Nc3ccc(C(=O)N4CCOCC4)cc3)c3[nH]ncc3c2c1 [Example 64, (4-((8-(methylsulfonyl)-3H-pyrazolo[3,4-c]quinolin-4-yl)amino)phenyl)(morpholino)methanone] |
| 10 to 100 | 10 to 100 | CN1CCN(C(=O)c2ccc(Nc3nc4ccc(S(C)(=O)=O)cc4c4cn[nH]c34)cc2)CC1 [Example 65, (4-methylpiperazin-1-yl)(4-((8-(methylsulfonyl)-3H-pyrazolo[3,4-c]quinolin-4-yl)amino)phenyl)methanone] |
| 10 to 100 | 10 to 100 | CS(=O)(=O)c1ccc2nc(Nc3ccc(C(N)=O)cc3)c3[nH]ncc3c2c1 [Example 66, 4-((8-(methylsulfonyl)-3H-pyrazolo[3,4-c]quinolin-4-yl)amino)benzamide] |
| < 10 | 10 to 100 | CN1CCN(C2CCN(c3ccc(Nc4nc5ccc(S(C)(=O)=O)cc5c5cn[nH]c45)cc3)CC2)CC1 [Example 67, N-(4-(4-(4-methylpiperazin-1-yl)piperidin-1-yl)phenyl)-8-(methylsulfonyl)-3H-pyrazolo[3,4-c]quinolin-4-amine] |
| < 10 | < 10 | CS(=O)(=O)c1ccc2nc(Nc3ccc4c(c3)NC(=O)CCC4)c3[nH]ncc3c2c1 [Example 77, 8-((8-(methylsulfonyl)-3H-pyrazolo[3,4-c]quinolin-4-yl)amino)-4,5-dihydro-1H-benzo[b]azepin-2(3H)-one] |
| 10 to 100 | 10 to 100 | CC(C)(C)N1CCN(c2ccc(Nc3nc4ccc(S(C)(=O)=O)cc4c4cn[nH]c34)cc2)CC1 [Example 80, N-(4-(4-(tert-butyl)piperazin-1-yl)phenyl)-8-(methylsulfonyl)-3H-pyrazolo[3,4-c]quinolin-4-amine] |
